{
  "source": "patent US12063929B2",
  "about": "“3′-alkynyl abscisic acid derivatives as ABA antagonists” (University of Saskatchewan, priority 2018, dated 2024)",
  "key": {"[1]": {"tested_on": "wheat", "assay": "Wheat radical elongation assay", "format": "in vivo", "settings": "10 μM 1019 alone, 3.0 days post treatment (FIG. 11C)", "experimental": "Seeds were surface sterilized by incubation in 10% bleach for 20 min with shaking, then rinsed four times with sterile water. Four ml of test solutions were pipetted into petri dishes (100×15 mm) that contain a single filter paper. Fifteen seeds were added to each dish. For rice, barely, and wheat, the experiment involved five treatments (5 μM ABA; 5 μM ABA+10 μM 1019; 10 μM 1019; water control; water+EtOH+NaOH control), with three replications per treatment. For sorghum, treatments were 10 μM ABA; 10 μM ABA+20 μM 1019; 20 μM 1019; water control; water+EtOH+NaOH control. Dishes were sealed with Parafilm, and incubated in the dark at room temperature. Radical length was measured daily post emergence using ImageJ software; shown are 3 days post treatment for barley, wheat and sorghum and 4.5 days post treatment for rice."}, "[2]": {"tested_on": "faba bean", "assay": "Faba bean seed germination and flowering", "format": "in vivo", "settings": "10 μM compound", "excerpt": "Fifty four lentil genotypes were selected for the experiment based on the existing data on the number of days it takes them to emerge and days to flowering. The seeds of each genotype were scarified before sowing and subjected to 3 treatments. VWR 415 9 cm filter papers were placed inside VWR 100 mm plastic petri dishes. Each petri dish was labeled on both the top and the bottom. Ten seed from each line was place in a labelled petri dish. Each lentil or faba bean genotype was replicated 3 times and subjected to 3 treatments (total number of experimental petri dishes=531). Thus: • 1. ABA exemplary compound solution [10 μM exemplary ABA analog compound 1019 in 1% DMSO, 99% H2O (LL10.1014.1) NaSaH (SL-1-16-1-53)] • 2. No exemplary ABA analogue solution (1% DMSO, 99% H2O) • 3. Distilled water—control\nSeven milliliters of either exemplary ABA analogue solution, solution with no exemplary ABA analogue or distill water (control) was added into the corresponding labelled petri dishes containing the 10 scarified lentil seeds. For faba, bean, 10 ml because of their large seed size. The petri dishes were placed in a dark cupboard. […]\nGermination was considered for a seed when a tiny radicle at least 5 mm or greater had emerged from the seed. The number of seeds that germinated was counted and recorded at 48 and 96 hours; and at 7 days. […]"}, "[3]": {"tested_on": "RIL from L. culinaris var Redberry x L. culinaris ssp. orientalis IG72595", "assay": "Lentil RIL germination, emergence and time to flowering (F5-F7, F7 experiment)", "format": "in vivo", "excerpt": "• DSTG=Days from seeding to germination • DSTE=Days from seeding to Emergence • DSTF=Days from seeding to flowering • DSTH=Days from seeding to harvesting of first seed (F7 was not included because the purpose of this generation was to harvest as many seeds as possible) • GA3=gibberellic acid • DMSO=solvent required for dissolving 1019-ABA F7 Experiment\nObjective: Testing the effect of soaking seeds of the F7 generation in four solutions listed below.\nTreatments: water, DMSO, 1019-ABA, and 1019-ABA for 1 day followed by 100 μM GA3\nPlant material: Seeds derived from a cross between L. culinaris var Redberry and L. culinaris ssp. orientalis IG72595\nExperimental set up: 207 RIL-lines in total; 4 seeds (repetitions) per line; 4 treatments\nData collection: Days from seeding to germination (DSTG), days from seeding to emergence (DSTE), and Days from seeding to first flower were counted. Days from seeding to first harvest was not determined because we needed as many seeds as possible in this generation.\nDays to germination (DSTG), emergence (DSTE), time to flowering (DSTF) and first harvest (DSTH) were determined during the development of a recombinant inbred line (RIL) developed from a cross between L. culinaris var Redberry and L. culinaris ssp. orientalis IG72595. The aim of the project was to find and incorporate Aphanomyces root rot resistance into the cultivated lentil, and the L. orientalis accession was identified with improved resistance. During the development of this RIL line speed breeding techniques were applied i.e. warmer temperatures, longer day length, higher light intensity, restricted pot volume etc. In generation F5, the exemplary compound became available and was tested on germination and emergence. […] The F7 generation was set up as a proper experiment with four treatments i.e. 1019, water, DMSO (solvent needed for dissolving exemplary compound 1019), and exemplary compound 1019 for one day followed by 100 μM GA3 (FIG. 12)."}, "[4]": {"tested_on": "ABA-inducible promoter of the MKKK18 gene (GUS reporter)", "assay": "ABA-inducible gene expression, MKKK18GUS reporter plants", "format": "in vivo, Arabidopsis", "parameters": "antagonist effect, GUS staining: dose or concentration left out as unconfirmed", "experimental": "Transgenic MKKK18GUS Arabidopsis plants harbor an […] (GUS) reporter gene fused to an ABA-inducible promoter of the MKKK18 gene (Okamoto et al. 2013). Six-day-old MKKK18GUS plants were treated with ABA1019 alone or both ABA1019 and ABA for 6 hours. Plants were then stained with 5-bromo-4-chloro-3-indolyl-beta-D-glucuronic acid cyclohexyl ammonium salt (X-Glc) for 14 hours, and destained with 70% ethanol."}, "[5]": {"settings": "F7 experiment, 207 lines (Table 2)"}, "[6]": {"settings": "generation F7, 819 seeded (Table 1)"}},
  "data": [
    {"smiles": "CC1=C(C#Cc2ccccc2)C(=O)CC(C)(C)[C@@]1(O)/C=C/C(C)=C\\C(=O)O", "note": "[Compound 1019, (2Z,4E)-5-((S)-1-Hydroxy-2,6,6-trimethyl-4-oxo-3-(phenylethynyl)cyclohex-2-en-1-yl)-3-methylpenta-2,4-dienoic acid]", "values": [
      {"measurement": "radical length (Least Square mean); radical elongation", "setting": "[1]", "value": 2.386},
      {"measurement": "germination rates", "setting": "[2]", "value": "no significant effect"},
      {"measurement": "days to flowering", "setting": "[2]; transplanted at 48 hours", "value": "nor did it significantly affect"},
      {"measurement": "emergence rate", "setting": "[3]; F7 experiment", "value": 100, "unit": "%"},
      {"measurement": "% Germ.", "setting": "[3]; [5]", "value": 99, "unit": "%"},
      {"measurement": "Germ. (number of seeds germinated)", "setting": "[3]; [5]", "value": 807},
      {"measurement": "% Germ.", "setting": "[3]; F7 experiment, 207 lines (Table 2), listed as 1019-ABA", "value": 98.9, "unit": "%"},
      {"measurement": "seeds emerged", "setting": "[3]; F7 experiment, four days after seeding (FIG. 12B)", "value": 81, "unit": "%"},
      {"measurement": "days earlier flowering than water treatment", "setting": "[3]; F7 experiment, on average", "value": 4, "unit": "days"},
      {"measurement": "DSTE (days from seeding to emergence)", "setting": "[3]; generation CVF6", "value": 4.03, "unit": "days"},
      {"measurement": "DSTF (days from seeding to flowering)", "setting": "[3]; generation CVF6", "value": 26.14, "unit": "days"},
      {"measurement": "DSTG (days from seeding to germination)", "setting": "[3]; generation CVF6", "value": 1.12, "unit": "days"},
      {"measurement": "DSTH (days from seeding to harvesting of first seed)", "setting": "[3]; generation CVF6", "value": 44.02, "unit": "days"},
      {"measurement": "Emerged (number of seeds emerged)", "setting": "[3]; generation CVF6, 226 seeded", "value": 226},
      {"measurement": "Germ. (number of seeds germinated)", "setting": "[3]; generation CVF6, 226 seeded", "value": 226},
      {"measurement": "DSTE (days from seeding to emergence)", "setting": "[3]; generation F5", "value": 4.93, "unit": "days"},
      {"measurement": "DSTF (days from seeding to flowering)", "setting": "[3]; generation F5", "value": 28.22, "unit": "days"},
      {"measurement": "DSTG (days from seeding to germination)", "setting": "[3]; generation F5", "value": 2.18, "unit": "days"},
      {"measurement": "DSTH (days from seeding to harvesting of first seed)", "setting": "[3]; generation F5", "value": 45.41, "unit": "days"},
      {"measurement": "Emerged (number of seeds emerged)", "setting": "[3]; generation F5, 231 seeded", "value": 225},
      {"measurement": "Germ. (number of seeds germinated)", "setting": "[3]; generation F5, 231 seeded", "value": 230},
      {"measurement": "Emerged (number of seeds emerged)", "setting": "[3]; [6]", "value": 791},
      {"measurement": "Germ. (number of seeds germinated)", "setting": "[3]; [6]", "value": 816},
      {"measurement": "agonist activity, GUS staining", "setting": "[4]; 2.5 μM applied alone, 6 hours", "value": "weak agonist activity"},
      {"measurement": "GUS staining compared to ABA alone", "setting": "[4]; 1:1 ratio with ABA", "value": "a reduction in the GUS staining"},
      {"measurement": "antagonist effect, GUS staining", "setting": "[4]; co-applied with ABA, dose dependent", "value": "potent antagonist effect"},
      {"measurement": "GUS staining compared to ABA alone", "setting": "[4]; ratio of compound to ABA 10:1", "value": "abolition of the ABA GUS stain"}
    ]}
  ]
}
